Legend:
C. albicans [1] = experiment: Inhibition of RIND IX reduction by C. albicans (yeast) in solution (Example 1, Table II); format: cell-based, Candida albicans (ATCC 14053); conditions: Method 2 (antibiotic preincubated with cells 37° C., 30 min), 635 nm
Experimental: The following materials were used in this example: stock solutions of RIND IX compound dispersion prepared as described above, glucose (10% in water), trimethyl-1,4-benzoquinone ETA (1.5 mg/ml methanol), and the antibiotics (25 mg/ml in dimethyl sulfoxide, except that filipin was 12.5 mg/ml of solvent). Bacteria and yeast were grown as described above. The approximate final cell concentrations in the assay mixture were 4.2×10^8 cells/ml of E. coli, 7.1×10^8 cells/ml of S. aureus, and 7×10^5 of C. albicans.
Test solutions were prepared by adding in order: 1.2 ml of HEPES buffer, 50 μl glucose solution, 1.5 ml of RIND IX dispersion, 100 μl of antibiotic solution, 100 μl of cell suspension and 25 μl of ETA solution. Cell control solutions contained all reagents except antibiotics. Background controls consisted of both buffer and solution controls. The buffer control contained all reagents except antibiotics and cells. The solution control contained all reagents except cells. Optical density readings (OD) were measured at 635 nm at 0 minutes and after incubation at 37° C. for 30 minutes for test and Control solutions, and the change in density (ΔOD) was determined. […] The corrected percent inhibition is calculated by dividing the difference between the ΔOD obtained from the Control without antibiotic and the ΔOD of the test solution, by ΔOD of the Control without antibiotic. All readings were corrected by subtracting readings of the appropriate background control.
Solutions containing 2.9 ml HEPES, 50 μl of the antibiotic solution, and 100 μl cell solution were incubated at 37° C. for 30 minutes, centrifuged for 10 minutes and decanted. The resulting pellet was then treated with 1.4 ml HEPES, 50 μl glucose solution, 1.5 ml RIND IX dispersion and 25 μl ETA solution, mixed well and the optical densities recorded as described above in Method 1. The corrected percent inhibition data was calculated as described in Method 1 above.

S. aureus [2] = experiment: Inhibition of RIND XXXV reduction by S. aureus, microtitration plate, fluorescence (Example 2, Table III); format: cell-based, Staphylococcus aureus (ATCC 25923); conditions: Staphylococcus aureus, 0.5 h, S. aureus (gram +), 37° C., 30 min, read-out: Corrected Percent Inhibition
Experimental: (§1) gram-negative microorganism Escherichia coli (ATCC 25922), gram-positive microorganism Staphylococcus aureus (ATCC 25923), and Candida albicans yeast cells (ATCC 14053), brain heart infusion broth (BHI) and Sabaroud's dextrose broth (SAB) from Difco Laboratories (Detroit, Michigan, U.S.A.), and Aspergillus flavus (ATCC 20047), a mold from American Type Culture Collection (Rockville, Maryland, U.S.A.).
(§2) E. coli and S. aureus were grown overnight in BHI broth at 37° C. C. albicans and A. flavus were grown overnight at 25° C. in SAB broth with agitation. The cells were harvested by centrifugation, washed and resuspended in 0.05 molar N-2-hydroxyethylpiperazine-N'-2-ethanesulfonic acid (HEPES) buffer (pH 7.8).
(§3) Dispersions containing RIND compounds were prepared by dissolving, for example, RIND VII from Table I above in N,N-dimethylformamide (DMF) at 16 mg compound per ml of solvent. An aliquot (250 μl) of the resulting solution was added to 500 μl of TRITON X-100 surfactant. This mixture was then added dropwise with stirring to 25 ml of 0.05 molar HEPES buffer. A solution containing a water-compatible RIND compound (for example, RIND XXXV) was prepared by dissolving the compound in N,N-dimethylformamide which had been acidified with 0.1% sulfuric acid (16 mg RIND compound per ml of solvent).
(§4) A composition was prepared from the following components: 100 μl RIND XXXV solution (16 mg RIND compound per ml of acidified N,N-dimethylformamide), 200 μl glucose solution (10% in water), 200 μl trimethyl-1,4-benzoquinone ETA solution (1.5 mg/ml methanol) and 10 ml HEPES buffer.
(§5) Test solutions were prepared using the following reagents: 50 μl HEPES buffer, 50 μl filipin polyene antibiotic (12.5 mg/ml dimethylsulfoxide)(serial dilutions of buffer and antibiotic solutions were performed to obtain various antibiotic concentrations), 50 μl of the appropriate cell suspensions, that is, E. coli (about 10^8 cells/ml), S. aureus (about 10^8 cells/ml), C. albicans (about 10^7 cells/ml) and A. flavus, and […] of the RIND composition described above.
(§6) Control solutions were prepared as described in Example 1. Relative fluorescence was measured using a Dynatech MICROFLUOR Reader (Dynatech Laboratories, Alexandria, Virginia) modified to read at excitation 540 nm and emission 620 nm, at zero time and after incubation at 37° C. for 30 minutes. The change in relative fluorescence was then determined as the difference of the two values.

C. albicans [3] = experiment: Inhibition of RIND XXXV reduction by C. albicans, microtitration plate, fluorescence (Example 2, Table III); format: cell-based, Candida albicans (ATCC 14053); conditions: Candida albicans, 0.5 h, C. albicans (yeast), 37° C., 30 min, read-out: Corrected Percent Inhibition
Experimental: as §1, §2, §3, §4, §5, §6

S. aureus [4] = experiment: Inhibition of MTT tetrazolium salt reduction by S. aureus, microtitration plate (Example 3, Table IV); format: cell-based, Staphylococcus aureus (ATCC 25923); conditions: Staphylococcus aureus, 0.5 h, S. aureus (gram +), 540 nm, 37° C., 30 min, read-out: Corrected Percent Inhibition
Experimental: as §1, §2
(§7) The differentiations of yeast and mold from bacteria were carried out in microtitration plates. The cell suspensions used were like those described in Example 2. The reducible compound used was 3-(4,5-dimethyl-2-thiazolyl)-2,5-diphenyl-2H-tetrazolium bromide (MTT). A composition containing MTT was prepared with the following components: 200 μl MTT solution (5 mg/ml methanol), 200 μl glucose solution (10% glucose in water), 200 μl trimethyl-1,4-benzoquinone ETA and 12 ml of HEPES buffer (0.05 molar, pH 7.8).
as §5, with “components:” for “reagents:”, “suspension, i.e.” for “suspensions, that is,”, “MTT” for “RIND”, “noted” for “described”, “above. Cell Controls contained all reagents except the antibiotic. Background was measured with buffer. Solution Controls contained all reagents except cells.” for “above.”
(§8) Optical density measurements were made at 540 nm using a commercially available spectrophotometer, and the change in optical density (ΔOD) was determined after 30 minutes at 37° C. […] It is apparent that the concentration effective for differentiation of yeast is different than for mold. However, it is well within the skill of a worker in the art to determine the appropriate concentration for a given test.

A. flavus = experiment: Inhibition of MTT tetrazolium salt reduction by A. flavus (mold), microtitration plate (Example 3, Table IV); format: cell-based, Aspergillus flavus (ATCC 20047); conditions: Aspergillus flavus, 0.5 h, 540 nm, 37° C., 30 min, read-out: Corrected Percent Inhibition
Experimental: as §1, §2, §7
as §5, with “components:” for “reagents:”, “suspension, i.e.” for “suspensions, that is,”, “MTT” for “RIND”, “noted” for “described”, “above. Cell Controls contained all reagents except the antibiotic. Background was measured with buffer. Solution Controls contained all reagents except cells.” for “above.”
as §8

E. coli = experiment: Inhibition of RIND XXXV reduction by E. coli, dry analytical element (Example 4, Table V); format: cell-based, Escherichia coli (ATCC 25922); conditions: E. coli (gram -), 37° C., 30 min
Experimental: as §1, §2
Dispersions containing RIND compounds were prepared by dissolving, for example, RIND VII from Table I above in N,N-dimethylformamide (DMF) at 16 mg compound per ml of solvent. An aliquot (250 μl) of the resulting solution was added to 500 μl of TRITON X-100 surfactant. […]
A standard paper punch was used to cut circular elements (about 0.6 cm in diameter) from the dried strips. […] Buffer solution was applied to separate elements for background readings.
Relative fluorescence (excitation at 540 nm and emission at 620 nm) was measured using a Dynatech MICROFLUOR reader at zero time and after 30 minutes incubation at 37° C., and the change in relative fluorescence was determined.

CCCCC[C@@H](O)[C@H]1C(=O)O[C@H](C)[C@@H](O)/C=C/C=C/C=C/C=C/C=C(\C)[C@@H](O)C[C@H](O)C[C@H](O)C[C@H](O)C[C@H](O)C[C@H](O)C[C@@H]1O [Filipin, filipin]
Corrected % Inhibition (C. albicans [1]): 97.5%
inhibition at 260 µg/mL (S. aureus [2]; 0.26 mg/ml): 7.5%
inhibition at 520 µg/mL (S. aureus [2]; 0.52 mg/ml): 8.6%
inhibition at 1040 µg/mL (S. aureus [2]; 1.04 mg/ml): 14.8%
inhibition at 2080 µg/mL (S. aureus [2]; 2.08 mg/ml): 18.2%
inhibition at 260 µg/mL (C. albicans [3]; 0.26 mg/ml): 56.8%
inhibition at 520 µg/mL (C. albicans [3]; 0.52 mg/ml): 71%
inhibition at 1040 µg/mL (C. albicans [3]; 1.04 mg/ml): 80.7%
inhibition at 2080 µg/mL (C. albicans [3]; 2.08 mg/ml): 86.8%
inhibition at 260 µg/mL (S. aureus [4]; 0.26 mg/ml): 0%
inhibition at 520 µg/mL (S. aureus [4]; 0.52 mg/ml): 0%
inhibition at 1040 µg/mL (S. aureus [4]; 1.04 mg/ml): 0%
inhibition at 2080 µg/mL (S. aureus [4]; 2.08 mg/ml): 0%
inhibition at 260 µg/mL (A. flavus; 0.26 mg/ml): 0%
inhibition at 520 µg/mL (A. flavus; 0.52 mg/ml): 10.3%
inhibition at 1040 µg/mL (A. flavus; 1.04 mg/ml): 19%
inhibition at 2080 µg/mL (A. flavus; 2.08 mg/ml): 98.3%
Corrected Percent Inhibition (E. coli): 18%

— patent US4888287A, “Rapid differentiation of fungi from bacteria using polyene antibiotics” (Eastman Kodak Company, priority 1986, dated 1989)
